In patent publication US9060966B2, “Use of 2,5-dihydroxybenzene derivatives for the treatment of arthritis and pain” (priority 2006, dated 2015):

Assays:
[1] = tested on: human retinal endothelial cells (HREC); assay: Proliferation of human retinal endothelial cells (HREC, crystal violet); assay type: cell-based; details: 72 h
Protocol: (§1) 2A-5HBS was administered or not administered (control) after seeding the HREC in 24-well plates (7.5×10^3 per well) until they were fixed after 72 hours. The data are expressed as the mean±SEM of the percentage of the absorbance at 595 nm obtained in the control cultures, which is proportional to the number of cells stained with crystal violet. The data were obtained from 6 cultures for each treatment in two separate experiments. The white bar represents the value of the control cells, whereas the gray bars show the value in the presence of 2A-5HBS (500 and 1000 μM). * indicates p<0.05, *** p<0.001 with respect to the control by means of a single-factor analysis of variance (ANOVA) followed by a Student-Newman-Keuls post-analysis.
as §1, with “5A-2HBS” for “2A-5HBS”, “striped” for “gray”, “***” for “*”, “indicates” for “indicates p<0.05, ***”
2,5-DHCME was administered or not administered (control) after seeding the HREC in 24-well plates (7.5×10^3 per well) until they were fixed after 72 hours. The data are expressed as the mean±SEM of the percentage of the absorbance at 595 nm obtained in the control cultures, which is proportional to the number of cells stained with crystal violet. The data were obtained from 6 cultures for each treatment in two separate experiments.
Primary cultures of human retinal endothelial cells (HREC) were used. Cells were obtained from Cell Systems (Virginia, USA) and subcultured with CSC complete medium (Cell Systems). Cells at 2 to 5 passages were seeded in 24-well plates at 7,500 cells/well density and, once attached, the cells were treated o not treated (controls) with 2A-5HBS (500 and 1000 μM) or 5A-2HBS (500 and 1000 μM) and they were allowed to proliferate for 72 hours, with daily medium changes. After that, the proliferation of HREC was evaluated by staining the fixed cells with crystal violet. The number of cells is proportional to the amount of retained dye, which was spectrophotometrically determined by measuring absorbance at 595 nm after removing the dye from the cells. Data are expressed as the percentage of absorbance at 595 nm obtained in control conditions. Data were obtained from two different experiments performed in triplicate.
Primary cultures of human retinal endothelial cells (HREC) were used. Cells were obtained from Cell Systems (Virginia, USA) and subcultured with CSC complete medium (Cell Systems). […] After that, the proliferation of HREC was evaluated by staining the fixed cells with crystal violet. The number of cells is proportional to the amount of retained dye, which was spectrophotometrically determined by measuring absorbance at 595 nm after removing the dye from the cells. Data are expressed as the percentage of absorbance at 595 nm obtained in control conditions. […]

[2] = tested on: corneal neovascularization; assay: Topical treatment of human corneal neovascularization; assay type: in vivo; details: 5% solution of potassium salt, 4 drops a day topical, 19 days, one patient
Excerpt: Photographs showing the presence of corneal neovascularization in a patient before being treated (A) and after 19 days of topical application of a solution containing 5% of potassium 2,5-dihydroxybenzoate (B). The treatment consisted of daily topical application of 4 drops of such solution.
4 drops a day were topically applied in a patient that presented a corneal neovascularization process refractory to any type of previous treatment.

Leishmania major = assay: Experimental infection with Leishmania major in a mouse model (paw thickness); assay type: in vivo, mice; details: 200 mg/kg/day i.p. for 14 days from third week after infection, effect from the eighth week
Excerpt: (§2) The vehicle group consisted of infected animals that received daily injections of saline (0.9% NaCl) during the same period as DHBS. Results are expressed as the mean±the standard deviation of the increases in size of the inoculated paw (right) compared to the non-inoculated paw (left) in mm obtained with a Vernier caliper each week from 0 to 10. ** indicates p<0.01 vs. the vehicle-treated group by a Student t-test. 6 animals were used for each group.
as §2, with “from” for “during”, “moment of the infection, while the control group consisted of non-infected animals.” for “same period as DHBS.”, “9. *” for “10. **”, “p<0.05” for “p<0.01”, “vehicle” for “vehicle-treated”, “7” for “6”
as §2, with “from” for “during”, “third week after the infection.” for “same period as DHBS.”, “9. *” for “10. **”, “p<0.05” for “p<0.01”, “vehicle” for “vehicle-treated”, “7” for “6”
This model is based in the massive inoculation of Leishmania promatigotes in the mouse paw pad. Under these conditions, the parasite induces a progressive inflammation correlated with the multiplication of parasites at the site of inoculation. BALB/c strain female mice that developed severe and uncontrolled injuries were used (Foote S J, Handman E. Brief Funct Genomic Proteomic, 2005). This model has been used in pharmacology to monitor the therapeutic capacity of new leishmanicide compounds and the preventive capacity of potential vaccines against leishmaniasis ((Nelson K G et al. Antimicrob Agents Chemother. 2006).
The animals were inoculated with 5×10^6 of L. major promastigotes (strain Hervás) in 50 μL of PBS into the plantar pad of the right back paw. As negative control of the infection, a group of mice inoculated with 50 μL of PBS was used. The sizes of the lesions were measured every 7 days until the animals were sacrificed (week 9) using a Vernier caliper. The thickness of the right back paw (infected) and the left back paw (uninfected) of all the animals was measured at the base of the fifth toe. The progression of the inflammation is represented as the difference in thickness between the infected and the non-infected paws. […]

[3] = target: T1, fibroblast growth factor-1 (FGF-1) (Homo sapiens, UniProt P05230); assay: Inhibition of fibroblast mitogenesis induced by FGF-1 in Balb/c 3T3 fibroblasts; assay type: cell-based; set-up: host or cells: added to Balb/c 3T3 fibroblasts (mouse); details: quiescent Balb/c 3T3 cultures; potassium salts, except 2-acetoxy-5-hydroxybenzene sulfonate as calcium salt
T1 sequence (P05230 whole entry, species assumed): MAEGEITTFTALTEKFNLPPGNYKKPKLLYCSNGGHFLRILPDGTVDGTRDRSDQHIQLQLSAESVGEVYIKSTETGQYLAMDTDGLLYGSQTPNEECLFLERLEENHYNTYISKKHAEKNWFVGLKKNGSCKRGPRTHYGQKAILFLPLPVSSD
Protocol: The evaluated compounds were used in the form of potassium salt, except in the first case in which calcium salt was used. The experiments were carried out as described in Fernandez-Tornero C et al. J Biol Chem, 2003.

rat C6 glioma cells = assay: Proliferation of rat glioma C6 cells (crystal violet); assay type: cell-based; details: 500 μM, 48 h
Protocol: FIG. 23. […] 5A-2HBS and 2A-5HBS were administered or not (control) after seeding C6 cells in 24 well plates (10^4 per well) until they were fixed 48 hours later. Data are expressed as the mean±SEM of the percentage of absorbance at 595 nm obtained in control cultures, which is proportional to the number of cells stained with crystal violet. Data were obtained from 3 cultures for each treatment and 6 control cultures.
The cell line used was the C6 cell line and the experiment was carried out as described in examples 2 and 3. Once adhered, the cells were treated or not (controls) with (5A-2HBS) (500 μM) or (2A-5HBS) (500 μM) and they were allowed to proliferate for 48 h. After this time the glioma cell proliferation was evaluated by means of staining the fixed cells with crystal violet. The number of cells is proportional to the amount of retained dye, which was determined spectrophotometrically by measuring the absorbance at 595 nm once the dye was extracted from the cells.

[4] = target: T1, fibroblast growth factor-1 (FGF-1); assay: Co-crystallisation with FGF-1 (crystal diffraction of complexes); assay type: binding; details: for acetoxyl groups of the compound when bound to the protein: electron density contoured at 1σ; for binding site on FGF-1 in the crystal complex: reference: site of 2,5-dihydroxybenzene sulfonic acid, lysine 132
Excerpt: (§3) FIG. 24. 2-acetoxy-5-hydroxybenzenesulfonic acid co-crystallized with fibroblast growth factor-1. […] The compound occupies a place that is very close to that described occupied by 2,5-dihydroxybenzenesulfonic acid, the aromatic ring of which forms a cation-σ bond with the N^ε group of lysine 132, which is marked in panel A as reference. […] In panels A and B, the protein surface is colored according to its electrostatic potential (light grey: negative charge; dark grey: positive charge; white: lack of charge).
as §3, with “25. 5-acetoxy-2-hydroxybenzenesulfonic” for “24. 2-acetoxy-5-hydroxybenzenesulfonic”, “cation-π” for “cation-σ”
as §3, with “26. 2,5-diacetoxybenzenesulfonic” for “24. 2-acetoxy-5-hydroxybenzenesulfonic”, “cation-π” for “cation-σ”
Based on the crystal diffraction of the FGF-1:2-acetoxy-5-hydroxybenzene sulfonic acid, FGF-1:5-acetoxy-2-hydroxybenzene sulfonic acid and FGF-1:2,5-diacetoxybenzene sulfonic acid complexes, the structures of the complexes were calculated and represented. FIGS. 24, 25 and 26, which show the surface of the dyed protein according to its electrostatic potential (light grey: negative charge; dark grey: positive charge; white: lack of charge), show the manner in which 2-acetoxy-5-hydroxybenzene sulfonic acid, 5-acetoxy-2-hydroxybenzene sulfonic acid and 2,5-diacetoxybenzene sulfonic acid interact, respectively, with FGF-1.

| Molecule | FGF-1 induced mitogenesis [3] | rat glioma cell proliferation (rat C6 glioma cells) | acetoxyl groups of the compound when bound to the protein [4] | binding site on FGF-1 in the crystal complex [4] | further results |
| --- | --- | --- | --- | --- | --- |
| COC(=O)C=Cc1cc(O)ccc1O [2,5-DHCME, 2,5-dihydroxycinnamic acid methyl ester] | – | – | – | – | HREC proliferation ([1]; 50 μM): significant inhibition; HREC proliferation ([1]; 100 μM): significant inhibition |
| O=C([O-])c1cc(O)ccc1O.[K+] [2,5-dihydroxybenzoate, potassium 2,5-dihydroxybenzoate] | – | – | – | – | degree of corneal vascularization [2]: remarkable reduction in the degree of corneal vascularization; degree of corneal vascularization ([2]; listed as 2,5-dihydroxybenzoic acid): noticeable reduction in the degree of corneal vascularization |
| O=S(=O)([O-])c1cc(O)ccc1O.[K+] [potassium 2,5-dihydroxybenzenesulfonate] | Inhibition | – | – | – | increase of paw thickness / size of the lesion (infected vs non-infected paw) (Leishmania major): Reduction in the size of the lesion; increase of paw thickness / size of the lesion (infected vs non-infected paw) (Leishmania major; listed as potassium 2,5-dihydroxybenzene sulfonate): significant reduction in the increase of paw thickness |
| CC(=O)Oc1ccc(O)c(S(=O)(=O)[O-])c1.[K+] [5A-2HBS, potassium 5-acetoxy-2-hydroxybenzenesulfonate] | Inhibition | inhibition | conserve the acetoxyl groups | a site that is very close to the one that has been described occupied by 2,5-dihydroxybenzene sulfonic acid | – |
| CC(=O)Oc1ccc(O)cc1S(=O)(=O)[O-].[K+] [2A-5HBS, potassium 2-acetoxy-5-hydroxybenzene sulfonate] | – | inhibition | conserve the acetoxyl groups | a site that is very close to the one that has been described occupied by 2,5-dihydroxybenzene sulfonic acid | HREC proliferation ([1]; 500 μM): significant inhibition; HREC proliferation ([1]; 1000 μM): significant inhibition |
| calcium 2-acetoxy-5-hydroxybenzenesulfonate | Inhibition | – | – | – | – |
